# Data published in US11014941B2, “Pyrrolopyrimidine derivatives useful as inhibitors of influenza virus replication” (priority 2017, dated 2021).
# Biological target: Influenza PB2 (Influenza A virus, UniProt P03428)
# Test: biochemical
# Type: binding
# Details: read-out: Influenza PB2 affinity, IC50
# Influenza PB2, sequence (P03428 whole entry, looked up): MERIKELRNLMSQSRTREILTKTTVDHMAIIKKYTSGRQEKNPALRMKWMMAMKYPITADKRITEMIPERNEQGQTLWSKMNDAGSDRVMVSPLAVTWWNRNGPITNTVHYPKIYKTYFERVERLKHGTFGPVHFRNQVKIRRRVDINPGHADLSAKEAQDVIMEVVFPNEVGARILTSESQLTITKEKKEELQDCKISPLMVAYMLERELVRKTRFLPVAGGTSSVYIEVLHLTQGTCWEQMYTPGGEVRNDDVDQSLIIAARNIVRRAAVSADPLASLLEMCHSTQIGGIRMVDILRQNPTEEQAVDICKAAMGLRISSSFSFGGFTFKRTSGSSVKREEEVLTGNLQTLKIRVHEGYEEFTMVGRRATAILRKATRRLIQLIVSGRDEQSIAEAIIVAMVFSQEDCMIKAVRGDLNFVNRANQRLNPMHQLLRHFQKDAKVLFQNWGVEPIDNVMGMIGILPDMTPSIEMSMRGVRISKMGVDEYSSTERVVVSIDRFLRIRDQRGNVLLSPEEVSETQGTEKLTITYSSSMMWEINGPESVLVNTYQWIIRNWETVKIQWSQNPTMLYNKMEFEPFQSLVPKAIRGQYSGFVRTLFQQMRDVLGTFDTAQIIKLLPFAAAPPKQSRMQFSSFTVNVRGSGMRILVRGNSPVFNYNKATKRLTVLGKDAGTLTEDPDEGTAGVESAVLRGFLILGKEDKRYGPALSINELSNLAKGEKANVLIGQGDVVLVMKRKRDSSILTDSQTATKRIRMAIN
row,Compound,IC50 [µM]
1,CCOC(=O)[C@H]1C2CCC(CC2)[C@@H]1n1cc(Cl)c2cnc(-c3cn(S(=O)(=O)c4ccc(C)cc4)c4ncc(F)cc34)nc21 [Compound B125],> 100
2,CN(C)C(=O)NCCn1cc(-c2c[nH]c3ncc(F)cc23)c2cncnc21 [Compound C16],> 100
3,CN(C)C(=O)Cn1ccc2c(-c3c[nH]c4ncc(F)cc34)ncnc21 [Compound A1],10 to 100
4,CN(C)C(=O)N[C@H]1CCC[C@H](n2ccc3cnc(-c4c[nH]c5ncc(F)cc45)nc32)C1 [Compound B59],10 to 100
5,O=C(O)[C@@H]1C2CCC(CC2)[C@H]1n1cc(F)c2cnc(-c3c[nH]c4ncc(C(F)(F)F)cc34)nc21 [Compound B216],1 to 10
6,O=C(O)[C@@H]1C2CCC(CC2)[C@H]1n1cc(C#CCC2CC2)c2cnc(-c3c[nH]c4ncc(F)cc34)nc21 [Compound B152],10 to 100
7,"CNC(=O)[C@@H]1C2CCC(CC2)C1n1cc(F)c2cnc(-c3c[nH]c4ncc(Cl)cc34)nc21 (single isomer, unassigned) [Compound B194]",1 to 10
8,CCOC(=O)c1cn([C@@H]2C3CCC(CC3)[C@H]2C(=O)O)c2nc(-c3c[nH]c4ncc(Cl)cc34)ncc12 [Compound B207],< 1
9,CCOCCOCCOCCN(C)C(=O)N[C@H]1CCC[C@@H](n2ccc3cnc(-c4c[nH]c5ncc(F)cc45)nc32)C1 [Compound B29],10 to 100
10,CN(C)C(=O)N1CCCC(Cn2cc(F)c3cnc(-c4c[nH]c5ncc(F)cc45)nc32)C1 (centres unmarked) [Compound B75],10 to 100
11,CC(=O)N[C@H]1C2CCC(CC2)[C@@H]1n1cc(Cl)c2cnc(-c3c[nH]c4ncc(F)cc34)nc21 [Compound B166],10 to 100
12,O=C(O)[C@@H]1C2CCC(CC2)[C@H]1n1ccc2ccc(-c3c[nH]c4ncc(F)cc34)cc21 [Compound B198],10 to 100
13,"O=C(O)[C@@H]1C2CCC(CC2)C1n1cc(-c2ccncc2)c2cnc(-c3c[nH]c4ncc(Cl)cc34)nc21 (single isomer, unassigned) [Compound B189]",1 to 10
14,C[C@]1(C(=O)O)CCCC[C@@H]1n1ccc2cnc(-c3c[nH]c4ncc(F)cc34)nc21 [Compound B71],< 1
15,O=C(O)CCN1CCc2cnc(-c3c[nH]c4ncc(F)cc34)nc21 [Compound B13],10 to 100
16,CN(C)C(=O)c1cn([C@@H]2C3CCC(CC3)[C@H]2C(=O)O)c2nc(-c3c[nH]c4ncc(Cl)cc34)ncc12 [Compound B204],< 1
17,CN(C)C(=O)N1CCCCC1Cn1cc(F)c2cnc(-c3c[nH]c4ncc(F)cc34)nc21 (centres unmarked) [Compound B86],1 to 10
18,CCOCCOCCOCCNC(=O)[C@@H]1CCCC[C@@H]1n1ccc2cnc(-c3c[nH]c4ncc(F)cc34)nc21 [Compound B30],10 to 100
19,"CNC(=O)[C@@H]1CCCC[C@H]1n1cc(F)c2cnc(-c3c[nH]c4ncc(Cl)cc34)nc21 (single isomer, unassigned) [Compound B93]",1 to 10
20,N[C@H]1CC[C@@H](n2ccc3cnc(-c4c[nH]c5ncc(F)cc45)nc32)CC1 [Compound B69],10 to 100
21,O=C(O)[C@H]1C2CCC(CC2)[C@@H]1n1cc(F)c2cnc(-c3c[nH]c4ncc(Cl)cc34)nc21 [Compound B135],< 1
22,COC(=O)[C@@H]1C2CCC(CC2)[C@H]1n1cc(-c2ccn[nH]2)c2cnc(-c3c[nH]c4ncc(F)cc34)nc21 [Compound B173],1 to 10
23,O=C(O)CCn1ccc2c(-c3c[nH]c4ncc(F)cc34)ncnc21 [Compound A5],10 to 100
24,O=C(O)C1=C(N2CCc3cnc(-c4c[nH]c5ncc(F)cc45)nc32)CCCC1 [Compound B53],1 to 10
25,CCCCCOCCOCC(=O)N[C@@H]1CCC[C@H](n2ccc3cnc(-c4c[nH]c5ncc(F)cc45)nc32)C1 [Compound B39],10 to 100

row,Compound,IC50 [µM]
1,CNC(=O)[C@@H]1CCCC[C@H]1n1cc(F)c2cnc(-c3c[nH]c4ncc(Cl)cc34)nc21 (racemic) [Compound B95],10 to 100
2,O=C(O)[C@@H]1C2CCC(CC2)[C@H]1n1cc(CCc2ccccn2)c2cnc(-c3c[nH]c4ncc(F)cc34)nc21 [Compound B186],< 1
3,COC(=O)[C@H](Cc1ccccc1)NC(=O)Cn1ccc2c(-c3c[nH]c4ncc(F)cc34)ncnc21 [Compound A8],> 100
4,CC(=O)NCCn1cc(-c2c[nH]c3ncc(F)cc23)c2cncnc21 [Compound C12],> 100
5,CCOC(=O)[C@]1(C)CCCC[C@H]1n1cc(F)c2cnc(-c3c[nH]c4ncc(Cl)cc34)nc21 [Compound B88],> 100
6,COC(=O)CCn1ccc2c(-c3c[nH]c4ncc(F)cc34)ncnc21 [Compound A2],10 to 100
7,CCOC(=O)[C@@H]1C2CCC(CC2)[C@H]1n1cc(-c2cccnc2)c2cnc(-c3c[nH]c4ncc(F)cc34)nc21 [Compound B181],1 to 10
8,O=C(O)[C@H]1C2CCC(CC2)[C@@H]1n1cc(Cl)c2cnc(-c3c[nH]c4ncc(F)cc34)nc21 [Compound B127],< 1
9,O=C(Cn1ccc2c(-c3c[nH]c4ncc(F)cc34)ncnc21)N[C@@H](Cc1ccccc1)C(=O)O [Compound A11],10 to 100
10,O=C(O)[C@@H]1C2CCC(CC2)C1n1cc(-c2ccncc2)c2cnc(-c3c[nH]c4ncc(Cl)cc34)nc21 (some centres unmarked) [Compound B187],1 to 10
11,CC(Cn1cc(-c2c[nH]c3ncc(F)cc23)c2cncnc21)C(=O)N(C)C (centres unmarked) [Compound C6],10 to 100
12,CCCCCOCCCCCNC(=O)N[C@H]1CCC[C@@H](n2ccc3cnc(-c4c[nH]c5ncc(F)cc45)nc32)C1 [Compound B49],> 100
13,COC(=O)CCn1ccc2cnc(-c3c[nH]c4ncc(F)cc34)nc21 [Compound B3],> 100
14,CNC(=O)[C@]1(C)CCCC[C@H]1n1cc(F)c2cnc(-c3c[nH]c4ncc(Cl)cc34)nc21 [Compound B92],10 to 100
15,CCOCc1ccc(C(=O)N[C@H]2CCC[C@@H](n3cc(F)c4cnc(-c5c[nH]c6ncc(Cl)cc56)nc43)C2)nc1 [Compound B101],> 100
16,"O=C(O)[C@H]1CCCC1n1ccc2cnc(-c3c[nH]c4ncc(F)cc34)nc21 (single isomer, unassigned) [Compound B21]",1 to 10
17,COC(=O)[C@H](C)NC(=O)Cn1ccc2c(-c3c[nH]c4ncc(F)cc34)ncnc21 [Compound A10],10 to 100
18,"O=C(O)[C@@H]1C2CCC(CC2)C1n1cc(F)c2cnc(-c3c[nH]c4ncc(Cl)cc34)nc21 (single isomer, unassigned) [Compound B143]",< 1
19,CN(C)C(=O)CCn1cc(-c2c[nH]c3ncc(F)cc23)c2cncnc21 [Compound C2],> 100
20,C[C@@]1(C(=O)O)CCCC[C@H]1n1cc(F)c2cnc(-c3c[nH]c4ncc(Cl)cc34)nc21 [Compound B91],< 1
21,O=C(O)[C@@H]1C2CCC(CC2)[C@H]1n1cc(-c2ccccn2)c2cnc(-c3c[nH]c4ncc(F)cc34)nc21 [Compound B169],< 1
22,CCC(C)(C(=O)NCC(F)(F)F)n1ccc2cnc(-c3c[nH]c4ncccc34)nc21 (centres unmarked) [Compound B97],> 100
23,CCOC(=O)[C@@H]1C2CCC(CC2)[C@H]1n1cc(F)c2cnc(-c3c[nH]c4ncc(C#N)cc34)nc21 [Compound B215],> 100
24,CN(C)C(=O)CCn1ccc2cnc(-c3c[nH]c4ncc(F)cc34)nc21 [Compound B2],10 to 100
25,CNC(=O)N[C@H]1C2CCC(CC2)[C@@H]1n1cc(Cl)c2cnc(-c3c[nH]c4ncc(F)cc34)nc21 [Compound B168],1 to 10
